Data from US20260374818A1, “CATIONIC PEPTIDES WITH BROAD SPECTRUM ACTIVITY” (priority 2023, published 2026).
Where a SMILES comes first, the peptide text is derived from it. [ ]: non-standard residue; d: D form.

Key:
[1] = tested on: MRSA USA 300 LAC biofilms; assay: Checkerboard biofilm synergy of AB103-D with antimicrobials, MRSA; type: cell-based, methicillin resistant Staphylococcus aureus
MRSA planktonic cells = assay: Planktonic inhibition by AB103-D single substitution variants, MRSA; type: cell-based, methicillin resistant Staphylococcus aureus; conditions: read-out: IC50 of AB103-D alone, planktonic
Source text: A series of single amino acid substitution variants of the AB103-D peptide were generated on cellulose arrays using SPOT-synthesis technology [Hilpert, K., Winkler, D. F., & Hancock, R. E. W. (2007). Peptide arrays on cellulose support: SPOT synthesis, a time and cost efficient method for synthesis of large numbers of peptides in a parallel and addressable fashion. Nature Protocols, 2(6), 1333-1349; Frank, R. (2002). The SPOT-synthesis technique. Synthetic peptide arrays on membrane supports-principles and applications. J Immunol Methods, 267(1), 13-26] to test for enhanced Gram-negative activity against P. aeruginosa and determine which residues contribute to the antibiofilm effects of this peptide. 96 AB103-D variants were generated by replacing each residue in the parent peptide with one of D-Arg, D-Lys, D-Glu, Gly, D-Ala, D-Ile, D-Leu, D-Val and D-Trp. The biofilm inhibitory activity of all 96 AB103-D variants was subsequently assessed against MRSA USA300 LAC or P. aeruginosa PAO1 in a microtitre plate assay [Haney, E. F., Trimble, M. J., & Hancock, R. E. W. (2021). Microtiter plate assays to assess antibiofilm activity against bacteria. Nature Protocols, 16(5), 2615-2632]. […].

[2] = tested on: MRSA biofilms on Ker-CT epidermal skin; assay: Skin organoid biofilm model, AB103-D loaded Medvance foam dressing, MRSA; type: cell-based, methicillin resistant Staphylococcus aureus
[3] = tested on: S. epidermidis biofilms on Ker-CT epidermal skin; assay: Skin organoid biofilm model, AB103-D loaded Medvance foam dressing, S. epidermidis; type: cell-based, Staphylococcus epidermidis
[4] = tested on: P. aeruginosa LESB58 biofilms on Ker-CT epidermal skin; assay: Skin organoid biofilm model, AB103-D loaded Medvance foam dressing, P. aeruginosa LESB58; type: cell-based, Pseudomonas aeruginosa
[5] = tested on: S. aureus USA300 (MRSA) wound biofilms; assay: Porcine dermal biofilm wound infection model, MRSA; type: in vivo, porcine; methicillin resistant Staphylococcus aureus; conditions: compared with ciprofloxacin, mupirocin
Source text: . Peptide (PEP1=DJK5; PEP3=AB103-D) solutions were used to hydrate Puracol® resorbable dressings made of collagen either alone or in the presence of antibiotic (ABX1=ciprofloxacin). Briefly, partial thickness wounds (10 mm×7 mm×1 mm deep) were created on the backs of the animals then infected with log-phase cultures of bacteria and allowed biofilms to form for 24-hrs. Dressings were applied to infected wounds of either MRSA S. aureus USA300 (FIG. 6A) or P. aeruginosa 27312 (FIG. 6B) as either a single treatment (day 1) or twice treated (Day 1 and 4) and all wounds were excised on day 7 for CFU renumeration. The amount of peptide applied in all treatments was 10 mg while 1 mg of ciprofloxacin was used in and treatment containing antibiotic. Mupirocin and silver sulfadiazine (SSD) were used as positive controls.
In vivo porcine dermal biofilm model: Peptide loaded dressings were evaluated using a porcine dermal biofilm infection model as described previously [Davis, S. C., et al. (2018). The wound-healing effects of a next-generation anti-biofilm silver Hydrofiber wound dressing on deep partial-thickness wounds using a porcine model. International Wound Journal, 15(5), 834-839]. Briefly, partial thickness wounds (10 mm×7 mm×1 mm deep) were created on the backs of the animals then infected with log-phase cultures of bacteria and allowed biofilms to form for 24-hrs. […]

N/TERT keratinocytes = assay: Cytotoxicity (LDH release), N/TERT keratinocytes
[6] = tested on: human bronchiolar epithelial cells (HBEs); assay: Cytotoxicity (LDH release), human bronchiolar epithelial cells

CC[C@@H](C)[C@@H](NC(=O)[C@@H](C)NC(=O)[C@@H](CCCNC(=N)N)NC(=O)[C@@H](Cc1c[nH]c2ccccc12)NC(=O)[C@@H](CCC(N)=O)NC(=O)[C@H](NC(=O)[C@@H](CCCNC(=N)N)NC(=O)[C@H](NC(=O)[C@H](NC(=O)[C@@H](CCCNC(=N)N)NC(=O)[C@H](NC(=O)[C@H](N)CCCNC(=N)N)C(C)C)C(C)C)[C@H](C)CC)C(C)C)C(N)=O [AB103-D, rvrvirvqwrai-NH2] (H-[dR][dV][dR][dV][dI][dR][dV][dQ][dW][dR][dA][dI]-NH2)
Synergy with several other antimicrobials ([1]; MRSA USA 300 biofilms): proved synergistic with several other antimicrobials | MBIC of AB103-D alone ([1]; MRSA, 10% TSB + 0.1% glucose, at least 70% reduction of biofilm biomass): 1 µg/mL | IC50 (MRSA planktonic cells): 1960 nM | Bacterial burden on organoid skin, loaded bandage [2]: effectively reduce the bacterial burden | Bacterial burden on organoid skin, loaded bandage [3]: effectively reduce the bacterial burden | Bacterial burden on organoid skin, loaded bandage [4]: effectively reduce the bacterial burden | Efficacy in porcine skin infection [5]: worked as well or better than ciprofloxacin, mupirocin (for MRSA) | Cytotoxicity (LDH) (N/TERT keratinocytes): low toxicity | Cytotoxicity (LDH) [6]: low toxicity
